Source: patent US20160106439A1, “PNEUMATIC TOURNIQUET” (BIONUMERIK PHARMACEUTICALS, INC., priority 2013, published 2016)
“Also recorded” adds a separate entry of the source. Where two headings read alike, the source gives them in different places.

Assays:
TrxR/Trx system = target: T1, TrxR/Trx system (Homo sapiens, UniProt P10599); test: NADPH oxidation by TrxR and Trx; format: biochemical; settings: increasing concentrations of the substance
T1 construct: 6xHis (N); purchased Sigma (Trx); American Diagnostica (bovine TrxR)
T1 sequence (P10599 1-105): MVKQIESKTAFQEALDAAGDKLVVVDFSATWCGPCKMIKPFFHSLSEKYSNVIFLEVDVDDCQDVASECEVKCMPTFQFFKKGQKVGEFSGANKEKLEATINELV

Recombinant human Trx [1] = target: T2, Recombinant human Trx (Homo sapiens, UniProt P10599); format: biochemical; design: 6xHis (N); purchased Sigma (Trx); American Diagnostica (bovine TrxR); settings: over MSSH and MSSCE
T2 sequence (P10599 1-105): T1 sequence (P10599 1-105)
Method: See, Luthman M and Holmgren A. Rat liver thioredoxin and thioredoxin reductase: purification and characterization. […] All disulfides were added to reactions as 10x solutions in buffer. The total volume of each reaction was 0.1 mL. Reactions were initiated by the addition of TrxR and were incubated at 25° C. for 40 minutes. Reactions were analyzed using a Molecular Devices SpectraMax Plus UV/vis plate reader and the activity was calculated using a 4 minute linear portion of each assay.

WT EGFR kinase = WT EGFR kinase (Homo sapiens, UniProt P00533); test: WT EGFR kinase assay (ADP-glo); settings: for more inhibition of WT EGFR relative to 4 nM Erlotinib alone: 10 μM ATP; for increased inhibition of WT EGFR relative to 20 nM Erlotinib alone: 100 μM ATP
[2] = tested on: non-small cell lung cancer; settings: patients >=65 years treated with carboplatin and paclitaxel; cited from earlier work
[3] = single oral dose of 100 mg, healthy volunteers; cited from earlier work
some cell lines = test: Mesna cytotoxicity in vitro (unpublished data)
[4] = tested on: bovine brain microtubule protein (α-/β-tubulin); test: Microtubule protein polymerization assay (OD350) and electron microscopy; format: biochemical; settings: for effect on GTP-catalyzed microtubule protein polymerization: preincubated with microtubule protein on ice 20 minutes, 37° C.
Recombinant human Trx [5] = target: T2, Recombinant human Trx; test: LC MS of Trypsin digested Trx after incubation with Tavocept, mesna or glutathione; format: binding; design: purchased Sigma (SigmaAldrich); host or cells: E. coli; settings: fragment CMPTFQFFK (cys73); 10 mM, 4 to 6 hours
[6] = read-out: Cmax for mesna; 41 g/m^2 Tavocept; cited from earlier work
thioredoxin = target: T3, thioredoxin (Homo sapiens, UniProt P10599); test: LC-MS of thioredoxin incubations; format: binding; settings: ion at m/z 1288.3
T3 construct: purchased Sigma (SigmaAldrich); host or cells: E. coli

[7] = target: T4, TrxR/Trx insulin disulfide reduction (Homo sapiens, UniProt P10599); test: TrxR/Trx insulin disulfide reduction assay with isolated Trx species; format: biochemical; settings: free Tavocept or glutathione disulfide removed
T4 construct: purchased Sigma; host or cells: E. coli (said of the Sigma Trx)
T4 sequence (P10599 1-105): T1 sequence (P10599 1-105)

Chain of WT EGFR kinase (P00533 25-1210): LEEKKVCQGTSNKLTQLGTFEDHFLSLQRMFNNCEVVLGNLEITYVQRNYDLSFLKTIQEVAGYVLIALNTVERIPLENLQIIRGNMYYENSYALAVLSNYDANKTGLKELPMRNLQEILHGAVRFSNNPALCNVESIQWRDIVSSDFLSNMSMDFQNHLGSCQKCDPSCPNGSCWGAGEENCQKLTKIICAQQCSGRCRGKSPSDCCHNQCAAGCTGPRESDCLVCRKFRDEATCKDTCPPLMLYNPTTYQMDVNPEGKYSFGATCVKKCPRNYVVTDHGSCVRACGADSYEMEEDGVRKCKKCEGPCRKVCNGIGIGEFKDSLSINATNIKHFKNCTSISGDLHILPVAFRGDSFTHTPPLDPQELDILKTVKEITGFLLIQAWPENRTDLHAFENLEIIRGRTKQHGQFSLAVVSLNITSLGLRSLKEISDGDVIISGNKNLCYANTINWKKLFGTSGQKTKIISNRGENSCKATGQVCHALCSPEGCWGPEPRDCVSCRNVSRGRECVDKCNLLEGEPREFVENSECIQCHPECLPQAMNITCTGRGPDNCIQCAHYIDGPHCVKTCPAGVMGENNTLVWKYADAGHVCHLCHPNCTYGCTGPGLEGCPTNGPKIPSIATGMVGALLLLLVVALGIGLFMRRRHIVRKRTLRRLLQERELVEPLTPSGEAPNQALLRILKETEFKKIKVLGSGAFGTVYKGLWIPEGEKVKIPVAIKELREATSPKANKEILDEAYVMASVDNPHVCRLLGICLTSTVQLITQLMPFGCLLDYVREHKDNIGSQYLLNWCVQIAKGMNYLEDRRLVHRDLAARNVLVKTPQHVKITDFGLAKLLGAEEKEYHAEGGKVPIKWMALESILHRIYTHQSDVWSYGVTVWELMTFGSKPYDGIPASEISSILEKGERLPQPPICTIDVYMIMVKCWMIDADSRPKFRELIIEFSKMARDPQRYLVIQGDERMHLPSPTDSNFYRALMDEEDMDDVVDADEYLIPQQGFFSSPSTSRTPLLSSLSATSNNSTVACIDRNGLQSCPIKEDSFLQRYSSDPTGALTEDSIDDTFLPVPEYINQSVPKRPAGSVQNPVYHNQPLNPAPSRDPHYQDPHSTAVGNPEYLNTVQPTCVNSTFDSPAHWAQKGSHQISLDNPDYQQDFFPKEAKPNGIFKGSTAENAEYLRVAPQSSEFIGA

NC(CSSCCS(=O)(=O)O)C(=O)O (stereo not shown) [MSSC, mesna-cysteine disulfide]
NADPH oxidation by TrxR and Trx (TrxR/Trx system): increases
Substrate preference of Trx (Recombinant human Trx [1]): preferred slightly
more inhibition of WT EGFR relative to 4 nM Erlotinib alone (WT EGFR kinase; 0.75 mM + 4 nM Erlotinib): 16%
more inhibition of WT EGFR relative to 4 nM Erlotinib alone (WT EGFR kinase; 1.5 mM + 4 nM Erlotinib): 34%
more inhibition of WT EGFR relative to 4 nM Erlotinib alone (WT EGFR kinase; 2.5 mM + 4 nM Erlotinib): 54%
increased inhibition of WT EGFR relative to 20 nM Erlotinib alone (WT EGFR kinase; 0.2 mM + 20 nM Erlotinib): 17%
increased inhibition of WT EGFR relative to 20 nM Erlotinib alone (WT EGFR kinase; 2.5 mM + 20 nM Erlotinib): 15%

N[C@@H](CCC(=O)N[C@@H](CSSCCS(=O)(=O)O)C(=O)NCC(=O)O)C(=O)O [MSSG, mesna-glutathione disulfide]
NADPH oxidation by TrxR and Trx (TrxR/Trx system): increases
Substrate preference of Trx (Recombinant human Trx [1]): preferred slightly

NC(CCSSCCS(=O)(=O)O)C(=O)O (stereo not shown) [MSSH, mesna-homocysteine disulfide]
NADPH oxidation by TrxR and Trx (TrxR/Trx system): increases

bevacizumab [Avastin]
Survival advantage [2]: did not confer a survival advantage

C#Cc1cccc(Nc2ncnc3cc(OCCOC)c(OCCOC)cc23)c1 [Erlotinib]
Cmax [3]: 1390 ng/mL

O=S(=O)([O-])CCS.[Na+] [mesna, 2-mercapto ethane sulfonate]
Concentrations that can be cytotoxic (some cell lines): ≤ 400 µM
effect alone on MTP polymerization or paclitaxel-induced hyperpolymerization [4]: no detectable effect
protection against monoaquocisplatin-induced loss of polymerization ([4]; mesna 200 μM preincubated 30 minutes with monoaquocisplatin 36 μM): prevented the monoaquocisplatin-induced loss; also recorded: able to protect
effect on GTP-catalyzed microtubule protein polymerization [4]: did not affect
effect on GTP-catalyzed microtubule protein polymerization ([4]; listed as Mesna): does not affect
Mesna-Cysteine Adduct Detected? (Recombinant human Trx [5]): presence of a mesna adduct on Cys73 of Trx
Cmax [6]: ~323 µM
mesna adduct on thioredoxin fragment CMPTFQFFK (thioredoxin): Cys73-mesna adduct

NC(CSSCCS(=O)(=O)O)C(=O)NCC(=O)O (stereo not shown) [MSSCG, mesna-cysteinyl glycine disulfide]
Substrate preference of Trx (Recombinant human Trx [1]): preferred slightly
more inhibition of WT EGFR relative to 4 nM Erlotinib alone (WT EGFR kinase; 0.50 mM + 4 nM Erlotinib): 28%
more inhibition of WT EGFR relative to 4 nM Erlotinib alone (WT EGFR kinase; 0.75 mM + 4 nM Erlotinib (MSSCG series)): 43%

B1: Trx-mesna: Trx covalently modified by a Tavocept-derived mesna moiety (conjugate, UniProt P10599 2-105, looked up)
Thioredoxin: VKQIESKTAFQEALDAAGDKLVVVDFSATWCGPCKMIKPFFHSLSEKYSNVIFLEVDVDDCQDVASECEVKCMPTFQFFKKGQKVGEFSGANKEKLEATINELV
modifications: mesna-modified
notes: Trx covalently modified by a Tavocept-derived mesna moiety
Effect on initial velocity relative to apo-Trx [7]: clear effect on initial velocity

B2: Trx-GSH: Trx modified by glutathione, prepared with glutathione disulfide as control (conjugate, UniProt P10599 2-105, looked up)
Thioredoxin: B1 Thioredoxin
modifications: glutathione-modified
notes: Trx modified by glutathione, prepared with glutathione disulfide as control
Effect on initial velocity relative to apo-Trx [7]: clear effect on initial velocity
